IC50 data for 11 compounds are collected here from patent US20240216357A1 (SICHUAN HUIYU PHARMACEUTICAL CO., LTD., priority 2021, published 2024).

Counter-ions that a name gives are not always drawn.

For test [1], the system named is NCI-H1417 cells. Put plainly: In vitro cell proliferation detection (CellTiter-Glo, 7 days). The format is cell-based. The conditions noted are these: Homo sapiens, 168 h; NCI-H1417 cells, 7 days, CellTiter-Glo; read-out: NCI-H1417 proliferation inhibition IC50. For orientation: In ATP-based viability assays light output follows the ATP content of the culture.
For test [2], the target named is LSD1 (Homo sapiens (Human), UniProt O60341). As to the kind of experiment: LSD1 enzyme activity detection (HTRF). The format is biochemical. The conditions noted are these: HTRF, H3K4me1 substrate; read-out: Inhibition of enzymatic activity of LSD1 IC50.

Consider `COc1ccc(-c2c(-c3ccc(C#N)c(F)c3)nc(N(C)CCCN)n3ccnc23)cc1O` [Example 144, 4-(5-((3-aminopropyl) (methyl)amino)-8-(3-hydroxy-4-methoxyphenyl)imidazolo[1,2-c]pyrimidin-7-yl)-2-fluorobenzonitrile], for which the results for the IC50 in test [1] and in test [2] were 18.2 nM and 1.6 ± 0.2 nM, respectively.

`O=C(c1cc(CN[C@@H]2C[C@H]2c2ccc(F)cc2)nc(-c2ccc(-n3cccn3)cc2)n1)N1CCOCC1` [Example 229]: the IC50 is 2.05 nM in test [1] and 13 nM in test [2].

`Cc1noc2c(-c3sc(C(=O)N4C5CCC4CC(N)C5)cc3-c3ccc(C#N)c(F)c3)c(F)ccc12` (stereo not shown) [Example 209, 4-(5-(3-amino-8-azabicyclo [3.2.1]octan-8-carbonyl)-2-(6-fluoro-3-methylbenzo[d]isoxazol-7-yl)thiophen-3-yl)-2-fluoro-benzonitrile hydrochloride]: the IC50 in test [1] came out at 1.44 nM; in test [2], 0.507 nM.

As to `CS(=O)(=O)N1CCN(C(=O)c2cc(CCN[C@@H]3C[C@H]3c3ccc(F)cc3)cc(-c3ccc(-n4cccn4)cc3)n2)CC1` [Example 256, (6-(4-(1H-pyrazol-1-yl)phenyl)-4-(2-(((1R,2S)-2-(4-fluorophenyl)cyclopropyl)amino)ethyl)pyridin-2-yl) (4-(methylsulfonyl)piperazin-1-yl)methanone], the IC50 in test [1] is 10.8 nM; in test [2], 71.3 nM.

In the case of `COc1ccc(-c2c(-c3ccc(C#N)c(F)c3)nc(N3CCC(N(C)C)CC3)n3ccnc23)cc1O` [Example 140, 4-(5-(4 (dimethylamino)piperidin-1-yl)-8-(3-hydroxy-4-methoxyphenyl)imidazolo[1,2-c]pyrimidin-7-yl)-2-fluorobenzonitrile], the IC50 was 0.2 ± 0.15 nM in test [1] and 0.4 ± 0.1 nM in test [2].

For the compound `CN(CCCN)c1nc(-c2ccc(C#N)c(F)c2)c(-c2ccc(F)c(O)c2)c2nccn12` [Example 148, 4-(5-((3-aminopropyl) (methyl)amino)-8-(4-fluoro-3-hydroxyphenyl)imidazolo [1,2-c]pyrimidin-7-yl)-2-fluorobenzonitrile], the values for the IC50 in test [1] and in test [2] were 78 nM and 6.9 ± 1.3 nM, respectively.

On to `COC(=O)C1CCN(C(=O)c2cc(CN[C@@H]3C[C@H]3c3ccc(F)cc3)nc(-c3ccc(-n4cccn4)cc3)n2)CC1` [Example 231], for which the figures for the IC50 in test [1] and in test [2] were 30.2 nM and 22.5 nM, respectively.

`COc1ccc(-c2c(OCC3COC3)cc(N3CCC(N)CC3)nc2-c2ccc(C#N)c(F)c2)cc1O` [Example 109, 4-(6-(4-aminopiperidin-1-yl)-3-(3-hydroxy-4-methoxyphenyl)-4-(oxetane-3-yl-methoxy)pyridin-2-yl)-2-fluorobenzonitrile hydrochloride]: the results for the IC50 in test [1] and in test [2] were 16 nM and 4 ± 1.7 nM, respectively.

With `COc1ccc(-c2c(-c3ccc(C#N)c(F)c3)nc(N3CCC(N)CC3)c3nc[nH]c23)cc1O` [Example 271, 4-(4-(4-aminopiperidin-1-yl)-7-(3-hydroxy-4-methoxyphenyl)-1H-imidazolo[4,5-c]pyridin-6-yl)-2-fluorobenzonitrile hydrochloride], the IC50 is 9.77 nM in test [1] and 0.5 ± 0.4 nM in test [2].

Regarding `COc1ccc(-c2c(-c3ccc(C#N)c(F)c3)nc(N3CC4CCC3CC4N)n3ccnc23)cc1F` (stereo not shown) [Example 170, 4-(5-(5-amino-2-azabicyclo[2.2.2]octane-2-yl)-8-(3-fluoro-4-methoxyphenyl)imidazolo[1,2-c]pyrimidin-7-yl)-2-fluorobenzonitrile hydrochloride], the IC50 in test [1] was found to be 18.3 nM; in test [2] it was 13.2 nM.

Take `CNC1CCCN(c2cc(O)c(-c3ccc(OC)c(F)c3)c(-c3ccc(C#N)c(F)c3)n2)C1` (stereo not shown) [Example 16, 2-fluoro-4-(3-(3-fluoro-4-methoxyphenyl)-4-hydroxy-6-(3-(methylamino)piperidin-1-yl)pyridin-2-yl)benzonitrile]: the IC50 in test [1] was 38 nM; in test [2], 15.2 ± 3.7 nM.
